Reference: US9744186B2 (priority 2012, dated 2017)

Experiments:
[1] = Compound solubility in media; format: physicochemical; settings: DMEM+2% FBS cell culture media, 37 °C, plasma or biological fluid, kinetic from dmso stock; DMEM+2% FBS media
Description: (§1) Treating the cells: Media (DMEM+2% FBS) was pre-warmed to 37° C. […] The 96-well plate was removed from the 37° C. incubator, and the media replaced on the plate with the serial dilutions of the test drug. The plate was then returned to 37° C. for 48 h.

[2] = test system: HCV luciferase replicon; assay: Isobologram analysis of synergism with other anti-viral compounds; format: cell-based, hepatitis C virus (HCV)
Description: Isobologram analysis was carried to assess the potential synergistic interaction of representative disclosed compounds with representative antiviral compounds. The isobolgram analysis was conducted as previously described by Chou and Talalay (see Chou T. C. and Talalay P. “Analysis of combined drug effects: a new look at a very old problem.” Trends Pharmacol Sci 1983; 4:450-4; and Chou T. C. and Talalay P. “Quantitative analysis of dose-effect relationships: the combined effects of multiple drugs or enzyme inhibitors.” Adv Enzyme Regul 1984; 22:27-55). The definitions of synergism are those described by Chou (see Chou, T. C. (2006) Theoretical basis, experimental design, and computerized simulation of synergism and antagonism in drug combination studies. Pharmacol Rev. 58(3):621-81).
Data for the isobologram analysis are shown in FIGS. 12-15, and shown in each figure are the test compound concentrations and corresponding combination index.

[3] = TC50 MTS assay: PK9 cells; format: cell-based; settings: human, 48 h drug treatment
Description: (§2) Plating Cells: The Huh7, HEPG2, HEK293, MCF-7, PK9, RPK9, or BxPC3 cells were passaged when they were about 70% confluent. The cells were counted using a hemocytometer, and then diluted cells to 0.5×10^5 cells per mL in DMEM+10% FBS. 100 µL of the cells (5,000 cells) were plated per well in a clear 96-well plate. The cells were allowed to attach for 24 hours at 37° C.
(§3) Treating the cells: Pre-warm the DMEM media without phenol red+2% FBS media to 37° C. […] This will bring the final DMSO concentration to 0.5%. Use these 0.5 mM dilutions to further serially the drugs in DMEM without phenol red+2% FBS+0.5% DMSO. This will keep the concentration of DMSO in each condition identical. Remove the 96-well plate from the 37° C. incubator. Replace the media on the plate with the dilutions of the drugs. Stagger these treatments by 1 h and write the treatment time on each set of plates. Return to 37° C. for 48 h or 96 h as indicated.
(§4) MTS Assay: The reagents from CellTiter 96 kit (Promega Corporation, Madison, Wis.) were thawed at room temperature in the dark for 1 h. The 96-well plate was removed from the 37° C. incubator at 48 h after drug treatment. […] The absorbance of each well at 490 nm and 650 nm was determined using the Flexstation 3 microplate reader in endpoint mode every hour for 3 h. The solutions in the wells were mixed prior to each reading. […]

[4] = TC50 MTS assay: RPK9 cells (deficient in deoxycytidine kinase); format: cell-based; settings: human, 48 h drug treatment, dCK-deficient cells
Description: as §2, §3, §4

[5] = TC50 MTS assay with human cancer cell lines: HEPG2; format: cell-based; settings: HEPG2 cells, 96 h drug treatment
Description: as §2, §3
(§5) MTS Assay: The reagents from CellTiter 96 kit (Promega Corporation, Madison, Wis.) were thawed at room temperature in the dark for 1 h. The 96-well plate was removed from the 37° C. incubator at 48 h after drug treatment. 20 μL of the combined MTS/PMS reagent to each well of the plate, mixed, and the plate returned to 37° C. The absorbance of each well at 490 nm and 650 nm was determined using the Flexstation 3 microplate reader in endpoint mode every hour for 3 h. The solutions in the wells were mixed prior to each reading. Fit Data to the Emax model: y=(Emax*x)/(TC50+x), where Emax is the maximum inhibition and TC50 is the inhibitory dose 50%. Alternatively, fit the data to the Emax sigmoidal model: y=(Emax*x^slope)/(TC50^slope+x^slope), where slope is the Hill Slope.
(§6) Each TC50 was the average value of three measurements as described herein. […] The RPK9 cells are deficient in deoxycytidine kinase (“dCK”) activity, an enzyme required for the initial phosphorylation of dFdC to dFdCMP (see FIG. 2).

[6] = test system: hENT1; assay: TC50 MTS assay with human cancer cell lines: Huh7; format: cell-based; settings: human, Huh7 cells; 48 h drug treatment; 10 μM S-(4-nitrobenzyl)-6-thioinosine (hENT1 inhibitor) added; read-out: TC50 (μM) in Huh7 cells NBTI
Description: as §2, §3, §5, §6

[7] = TC50 MTS assay with human cancer cell lines: Huh7; format: cell-based; settings: human, Huh7 cells; 96 h drug treatment
Description: as §2, §3, §5, §6

[8] = TC50 MTS assay with human cancer cell lines: MCF-7; format: cell-based; settings: MCF-7 cells, 96 h drug treatment
Description: as §2, §3, §5, §6

[9] = test system: HCV luciferase replicon; assay: Reversal of anti-HCV activity by exogenous nucleosides; format: cell-based, hepatitis C virus (HCV); settings: drug 1000, 100 or 25 nM; 50 μM cytidine or 2′-deoxycitidine; 48 h
Description: After 48 hours, the cells were lysed, and the total luciferase activity was determined. […] Where indicated, either 50 μM cytidine (C) or 50 μM 2′-deoxycitidine (dC) was also included.
The cells were plated, incubated with drug, and luciferase activity assayed essentially as described herein above. The incubation with drug was for 48 h.

[10] = test system: HCV luciferase replicon; assay: HCV luciferase replicon IC50 assay in Huh7 cells; settings: Hepatitis C virus
Description: Plating Cells: The Luciferase replicon cell line was passaged when it was at about 70% confluency. The cells were counted by using a hemocytometer and diluted to 1×10^5 cells per mL in DMEM+10% FBS+[…] G415. The cells were plated as follows: 100 μL of the cells (10,000 cells) per well in a white-walled 96-well plate. The cells were allowed to attach for 24 hours at 37° C.
as §1
Luciferase Assay: The Bright-Glo reagent (Promega Corporation, Madison, Wis.) was removed from the −80° C. freezer and allowed to thaw it at 4° C. in the dark. The amount of reagent necessary for the experiment (3.65 mL) was removed, and the remaining reagent was returned to −80° C. The Glo Lysis Buffer and the Bright Glow reagent were allowed to warm to room temperature for 30 min in the dark. The 96 well plate was removed from the incubator and the cells to allowed cool to room temperature for 30 min. The media was removed from the cells, and each well was gently washed in 100 μL of phosphate buffered saline (PBS). The PBS was removed and then 50 μL of the Glo Lysis Buffer was added to each well, followed by gently rocking the plate for 15 min at room temperature in the dark to ensure complete cell lysis. To each well of the 96-well plate was added 50 μL of the Bright Glo reagent and it was mixed well with the lysate. The plate was inserted into a GloMax 96 plate reader and allowed to sit for 5 min in the dark for the luciferase reaction to reach a steady state. The luminescence on the plate was read by using the pre-installed “Bright Glo” Promega program (Synergy Software) and the data were collected and saved. The data were fit to a 4 parameter logistic curve using Kaleidagraph using the following equation: 100/(1+(x/m3)^m4).
The data in Table 1 were determined for cells exposed to drug for 48 h. The IC50 is the concentration of each compound necessary to inhibit the replication of the HCV luciferase replicon to 50%.
That is, the cells were exposed to drug for 2 h at 37° C., followed by 46 h at 37° C. or incubated in the presence of drug for 48 h at 37° C.

[11] = TC50 MTS assay with human cancer cell lines: HEK293; format: cell-based; settings: HEK293 cells, 96 h drug treatment
Description: as §2, §3, §5, §6

[12] = TC50 MTS assay with human cancer cell lines: BxPC3; format: cell-based; settings: BxPC3 cells, 96 h drug treatment
Description: as §2, §3, §4

SMILES: Nc1ccn([C@@H]2O[C@H](CO)[C@@H](O)C2(F)F)c(=O)n1 [gemcitabine, 4-amino-1-((2R,4R,5R)-3,3-difluoro-4-hydroxy-5-(hydroxymethyl)tetrahydrofuran-2-yl)pyrimidin-2(1H)-one, reference compound]
- solubility [1]: > 500 µM
- Interaction Type with PSI-6130 ([2]; Compound 2 = PSI-6130): synergism
- Interaction Type with PSI-7977 ([2]; Compound 2 = PSI-7977): slight synergism
- CC50 at 48 h [3]: 0.095 ± 0.035 µM
- CC50 at 48 h [4]: > 500 µM
- CC50 at 96 h [5]: 311 ± 55 nM
- CC50 at 48 h [6]: > 500 µM
- CC50 at 96 h [7]: 3410 ± 1360 nM
- CC50 at 96 h [8]: 67 ± 14 nM
- reversal of the inhibition of the HCV luciferase replicon by deoxycytidine and cytidine [9]: reversal
- IC50 ([10]; Huh-7, 48 h, cells incubated with drug continuously for 48 h (Table 5)): 58.4 ± 6.1 nM
- IC50 ([10]; Huh-7, cells incubated with drug for 2 h, followed by 46 h without drug): 170 ± 33 nM
- CC50 at 96 h [11]: 560 ± 130 nM
- CC50 at 96 h [12]: 2.9 ± 0.3 nM
